Data on 29 compounds can be found in US12098145B2 (Libra Therapeutics, Inc., priority 2022, dated 2024).

For the assay, the target named is T1, TRPML1 (Homo sapiens, UniProt Q9GZU1).
T1 construct: expressed in transfected cells; host or cells: HEK T-REx cells stably expressing GCaMP6f and TRPML1
T1 sequence (Q9GZU1 whole entry): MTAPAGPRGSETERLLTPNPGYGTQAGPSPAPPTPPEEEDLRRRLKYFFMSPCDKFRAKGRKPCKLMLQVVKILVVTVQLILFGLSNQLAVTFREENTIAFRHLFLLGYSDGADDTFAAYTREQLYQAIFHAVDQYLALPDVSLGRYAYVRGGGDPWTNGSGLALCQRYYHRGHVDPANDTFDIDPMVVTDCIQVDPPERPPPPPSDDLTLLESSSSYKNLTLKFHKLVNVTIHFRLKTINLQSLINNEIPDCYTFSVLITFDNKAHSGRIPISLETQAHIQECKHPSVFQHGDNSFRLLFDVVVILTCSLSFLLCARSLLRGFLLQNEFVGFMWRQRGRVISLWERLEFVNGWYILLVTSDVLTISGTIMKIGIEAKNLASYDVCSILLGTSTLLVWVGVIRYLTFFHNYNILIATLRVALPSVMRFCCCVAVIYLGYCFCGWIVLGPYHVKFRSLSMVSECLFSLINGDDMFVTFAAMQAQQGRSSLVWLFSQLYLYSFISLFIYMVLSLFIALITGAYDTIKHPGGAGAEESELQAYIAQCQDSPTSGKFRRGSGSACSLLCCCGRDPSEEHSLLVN
The assay is described as follows: Cellular TRPML1 assay (FLIPR, GCaMP6f calcium read-out). The class given is cell-based. The settings on record: HEKT-REx/GCaMP6f/TRPML1 cells, FLIPR TETRA, kinetic response over 300 seconds; read-out: TRPML1 FLIPR pEC50 (converted). The protocol: Example A: Cellular TRPML1 Assay
The final clone for the TRPML1 assay is HEKT-REx/GCaMP6f/TRPML1. GCaMP6f is a genetically encoded calcium indicator that is stably expressed in this cell line and used as a fluorescent read-out.
Experiments were performed in 384 MTP format. Cells are seeded at 15000 cells/well in 20 μl/well of Optimem+0.5% FBS without selection antibiotics. Twenty-four hours later, cells are assayed for the response to various compounds using the Ca^2+ sensitive GCaMP6f protein stably expressed in the cells as readout.
The experiment was performed in a 384-well format according to the following procedures: • 24 h after seeding, the cells were pre-incubated at room temperature for about 10 min. • Started the experiment at the FLIPR^TETRA by injecting 10 μL/w of 3× concentrated test compounds and controls in Ca^2+ free Tyrode's buffer. Monitored the kinetic response over a period of 300 seconds. • Final DMSO concentration: 0.5%
Data from FLIPR^TETRA measurements were analyzed with the Genedata Screener© software.
For the compound `O=C(Nc1ccc(OC2CC(F)(F)C2)c(F)c1)c1nc(N2CCCC2)oc1CC(F)(F)F` [Example 44, N-[4-(3,3-difluorocyclobutoxy)-3-fluorophenyl]-2-(pyrrolidin-1-yl)-5-(2,2,2-trifluoroethyl)oxazole-4-carboxamide], the EC50 was 1 to 10 µM.

Regarding `CC1(C)CC(Oc2ccc(NC(=O)c3nc(N4CCCC4)oc3CC(F)(F)F)cc2F)CO1` (centres unmarked) [Example 45, N-{4-[(5,5-dimethyloxolan-3-yl)oxy]-3-fluorophenyl}-2-(pyrrolidin-1-yl)-5-(2,2,2-trifluoroethyl)oxazole-4-carboxamide], the EC50 is 1 to 10 µM. The figure for `O=C(Nc1ccc(OC2CC3C(C2)C3(F)F)c(F)c1)c1nc(N2CCCC2)oc1CC(F)(F)F` (centres unmarked) [Example 46, N-[4-({6,6-difluorobicyclo[3.1.0]hexan-3-yl}oxy)-3-fluorophenyl]-2-(pyrrolidin-1-yl)-5-(2,2,2-trifluoroethyl)oxazole-4-carboxamide] is 1 to 10 µM; for `O=C(Nc1ccc(O[C@@H]2COCC2(F)F)c(F)c1)c1nc(N2CCCC2)oc1CC(F)(F)F` [Example 49, (R)—N-(4-((4,4-difluorotetrahydrofuran-3-yl)oxy)-3-fluorophenyl)-2-(pyrrolidin-1-yl)-5-(2,2,2-trifluoroethyl)oxazole-4-carboxamide] it is 1 to 10 µM. `O=C(Nc1ccc(OC2CCC3CC32)c(F)c1)c1nc(N2CCCC2)oc1CC(F)(F)F` (centres unmarked) [Example 51, N-(4-{bicyclo[3.1.0]hexan-2-yloxy}-3-fluorophenyl)-2-(pyrrolidin-1-yl)-5-(2,2,2-trifluoroethyl)oxazole-4-carboxamide]: the EC50 is 1 to 10 µM. Next, `O=C(Nc1ccc(OC2CCCC23CC3)c(F)c1)c1nc(N2CCCC2)oc1CC(F)(F)F` (centres unmarked) [Example 52, N-(3-fluoro-4-(spiro[2.4]heptan-4-yloxy)phenyl)-2-(pyrrolidin-1-yl)-5-(2,2,2-trifluoroethyl)oxazole-4-carboxamide]: 1 to 10 µM.

Turning to `O=C(Nc1ccc(OCC2CCCC2(F)F)c(F)c1)c1nc(N2CCCC2)oc1CC(F)(F)F` (centres unmarked) [Example 53, N-{4-[(2,2-difluorocyclopentyl)methoxy]-3-fluorophenyl}-2-(pyrrolidin-1-yl)-5-(2,2,2-trifluoroethyl)oxazole-4-carboxamide], the EC50 was 1 to 10 µM.

On to `O=C(Nc1ccc(OC2CCOCC2)c(F)c1)c1nc(N2CCCC2)oc1CC(F)(F)F` [Example 56, N-[3-fluoro-4-(oxan-4-yloxy)phenyl]-2-(pyrrolidin-1-yl)-5-(2,2,2-trifluoroethyl)oxazole-4-carboxamide], for which the EC50 is 1 to 10 µM. The figure for `O=C(Nc1ccc(OC2CCCC2)c(F)c1)c1nc(N2CCC3(CC3)C2)oc1CC(F)(F)F` [Example 57, N-(4-(cyclopentyloxy)-3-fluorophenyl)-2-(5-azaspiro[2.4]heptan-5-yl)-5-(2,2,2-trifluoroethyl)oxazole-4-carboxamide] is 1 to 10 µM; for `O=C(Nc1ccc(OCCC(F)(F)F)c(F)c1)c1nc(N2CCCC2)oc1CC(F)(F)F` [Example 58, N-(3-fluoro-4-(3,3,3-trifluoropropoxy)phenyl)-2-(pyrrolidin-1-yl)-5-(2,2,2-trifluoroethyl)oxazole-4-carboxamide] it is 1 to 10 µM; for `CCC(C)Oc1ccc(NC(=O)c2nc(N3CCCC3)oc2CC(F)(F)F)cc1F` (centres unmarked) [Example 59, N-(4-(sec-butoxy)-3-fluorophenyl)-2-(pyrrolidin-1-yl)-5-(2,2,2-trifluoroethyl)oxazole-4-carboxamide] it is 1 to 10 µM.

Regarding `CC(CC(F)(F)F)Oc1ccc(NC(=O)c2nc(N3CCCC3)oc2CC(F)(F)F)cc1F` (centres unmarked) [Example 60, N-(3-fluoro-4-((4,4,4-trifluorobutan-2-yl)oxy)phenyl)-2-(pyrrolidin-1-yl)-5-(2,2,2-trifluoroethyl) oxazole-4-carboxamide], the EC50 was 1 to 10 µM. As for `O=C(Nc1ccc(OC2CCCC2)c(F)c1)c1nc(N2C[C@H]3CCO[C@H]3C2)oc1CC(F)(F)F` [Example 61, N-(4-(cyclopentyloxy)-3-fluorophenyl)-2-((3aR,6aR)-hexahydro-5H-furo[2,3-c]pyrrol-5-yl)-5-(2,2,2-trifluoroethyl)oxazole-4-carboxamide], the EC50 is 1 to 10 µM. Next, `O=C(Nc1ccc(OC2CCCC2)c(F)c1)c1nc(N2CCCC2)oc1CC(F)(F)F` [Example 62, N-[4-(cyclopentyloxy)-3-fluorophenyl]-2-(pyrrolidin-1-yl)-5-(2,2,2-trifluoroethyl)oxazole-4-carboxamide]: 1 to 10 µM; `O=C(Nc1ccc(OC2COCC2(F)F)c(F)c1)c1nc(N2CCC3(CC3)C2)oc1CC(F)(F)F` (centres unmarked) [Example 63, N-(4-((4,4-difluorotetrahydrofuran-3-yl)oxy)-3-fluorophenyl)-2-(5-azaspiro[2.4]heptan-5-yl)-5-(2,2,2-trifluoroethyl)oxazole-4-carboxamide]: 1 to 10 µM. The figure for `O=C(Nc1ccc(OC2CCCCC2)c(F)c1)c1nc(N2CCCC2)oc1CC(F)(F)F` [Example 65, N-(4-(cyclohexyloxy)-3-fluorophenyl)-2-(pyrrolidin-1-yl)-5-(2,2,2-trifluoroethyl)oxazole-4-carboxamide] is 1 to 10 µM. The figure for `O=C(Nc1ccc(OC2CCCOC2)c(F)c1)c1nc(N2CCCC2)oc1CC(F)(F)F` (centres unmarked) [Example 66, N-[3-fluoro-4-(oxan-3-yloxy)phenyl]-2-(pyrrolidin-1-yl)-5-(2,2,2-trifluoroethyl)oxazole-4-carboxamide] is 1 to 10 µM. As for `O=C(Nc1ccc(OC2CCCC23CCC3)c(F)c1)c1nc(N2CCCC2)oc1CC(F)(F)F` (centres unmarked) [Example 67, N-(3-fluoro-4-{spiro[3.4]octan-5-yloxy}phenyl)-2-(pyrrolidin-1-yl)-5-(2,2,2-trifluoroethyl)oxazole-4-carboxamide], the EC50 is 1 to 10 µM. Next, `O=C(Nc1ccc(O[C@H]2COCC2(F)F)c(F)c1)c1nc(N2CCCC2)oc1CC(F)(F)F` [Example 69, (S)—N-(4-((4,4-difluorotetrahydrofuran-3-yl)oxy)-3-fluorophenyl)-2-(pyrrolidin-1-yl)-5-(2,2,2-trifluoroethyl)oxazole-4-carboxamide]: 0.01 to 1 µM; `CC1(C)CN(c2nc(C(=O)Nc3cc(F)c(OC4COCC4(F)F)c(F)c3)c(CC(F)(F)F)o2)C1` (centres unmarked) [Example 70, N-{4-[(4,4-difluorotetrahydrofuran-3-yl)oxy]-3,5-difluorophenyl}-2-(3,3-dimethylazetidin-1-yl)-5-(2,2,2-trifluoroethyl)oxazole-4-carboxamide]: 0.01 to 1 µM. Next, `CN(c1ccc(NC(=O)c2nc(N3CC4(C3)CC(F)(F)C4)oc2CC(F)(F)F)cc1F)C1CCCC1` [Example 79, N-{4-[cyclopentyl(methyl)amino]-3-fluorophenyl}-2-{6,6-difluoro-2-azaspiro[3.3]heptan-2-yl}-5-(2,2,2-trifluoroethyl)oxazole-4-carboxamide]: 1 to 10 µM. The figure for `CN(c1ccc(NC(=O)c2nc(N3CCCC3)oc2CC(F)(F)F)cc1F)C1CC2CC2C1` (centres unmarked) [Example 80, N-(4-{bicyclo[3.1.0]hexan-3-yl(methyl)amino}-3-fluorophenyl)-2-(pyrrolidin-1-yl)-5-(2,2,2-trifluoroethyl)oxazole-4-carboxamide] is 1 to 10 µM. Turning to `CN(c1c(F)cc(NC(=O)c2nc(N3CCCC3)oc2CC(F)(F)F)cc1F)C1CCCC1(F)F` (centres unmarked) [Example 81, N-{4-[(2,2-difluorocyclopentyl)(methyl)amino]-3,5-difluorophenyl}-2-(pyrrolidin-1-yl)-5-(2,2,2-trifluoroethyl)oxazole-4-carboxamide], the EC50 is 1 to 10 µM. Next, `O=C(Nc1ccc(OC2CCCC2)c(O)c1)c1nc(N2CCCC2)oc1CC(F)(F)F` [Example 85, N-(4-(cyclopentyloxy)-3-hydroxyphenyl)-2-(pyrrolidin-1-yl)-5-(2,2,2-trifluoroethyl)oxazole-4-carboxamide]: 1 to 10 µM; `O=C(Nc1ccc(OC2CCCC2(F)F)c(O)c1)c1nc(N2CCCC2)oc1CC(F)(F)F` (centres unmarked) [Example 86, N-{4-[(2,2-difluorocyclopentyl)oxy]-3-hydroxyphenyl}-2-(pyrrolidin-1-yl)-5-(2,2,2-trifluoroethyl)-1,3-oxazole-4-carboxamide]: 1 to 10 µM; `CCN(c1ccc(NC(=O)c2nc(N3CCCC3)oc2CC(F)(F)F)cc1F)C1CCCC1(F)F` (centres unmarked) [Example 87, N-(4-((2,2-difluorocyclopentyl)(ethyl)amino)-3-fluorophenyl)-2-(pyrrolidin-1-yl)-5-(2,2,2-trifluoroethyl)oxazole-4-carboxamide]: 10 to 100 µM. Next, `NCC1CN(c2nc(C(=O)Nc3ccc(OC4CCCC4(F)F)c(F)c3)c(CC(F)(F)F)o2)C1` (centres unmarked) [Example 88, 2-[3-(aminomethyl)azetidin-1-yl]-N-{4-[(2,2-difluorocyclopentyl)oxy]-3-fluorophenyl}-5-(2,2,2-trifluoroethyl)oxazole-4-carboxamide]: 10 to 100 µM.

As to `Cc1oc(N2CC3(C2)CC(F)(F)C3)nc1C(=O)Nc1ccc(N2CCCCC2)c(F)c1` [Example 89, 2-(6,6-difluoro-2-azaspiro[3.3]heptan-2-yl)-N-(3-fluoro-4-(piperidin-1-yl)phenyl)-5-methyloxazole-4-carboxamide], the EC50 was 1 to 10 µM.

With `Cc1oc(N2CCC3(CCC3)C2)nc1C(=O)Nc1ccc(N2CCCCC2)c(F)c1` [Example 92, N-(3-fluoro-4-(piperidin-1-yl)phenyl)-5-methyl-2-(6-azaspiro[3.4]octan-6-yl)oxazole-4-carboxamide], the EC50 was 10 to 100 µM.
